Read-outs that look alike come from different tables or passages of the source.
Tests used:
P. falciparum [1] = settings: Table 6, footnote b: Edwards et al. 2017; read-out: P.f. IC50; cited from earlier work
P. falciparum DXR = target: T1, P. falciparum DXR (Plasmodium falciparum, UniProt Q8IKG4); settings: read-out: Pf DXR IC50; Table 2, footnote a: Gießmann et al. 2008; cited from earlier work
T1 sequence (Q8IKG4 73-488): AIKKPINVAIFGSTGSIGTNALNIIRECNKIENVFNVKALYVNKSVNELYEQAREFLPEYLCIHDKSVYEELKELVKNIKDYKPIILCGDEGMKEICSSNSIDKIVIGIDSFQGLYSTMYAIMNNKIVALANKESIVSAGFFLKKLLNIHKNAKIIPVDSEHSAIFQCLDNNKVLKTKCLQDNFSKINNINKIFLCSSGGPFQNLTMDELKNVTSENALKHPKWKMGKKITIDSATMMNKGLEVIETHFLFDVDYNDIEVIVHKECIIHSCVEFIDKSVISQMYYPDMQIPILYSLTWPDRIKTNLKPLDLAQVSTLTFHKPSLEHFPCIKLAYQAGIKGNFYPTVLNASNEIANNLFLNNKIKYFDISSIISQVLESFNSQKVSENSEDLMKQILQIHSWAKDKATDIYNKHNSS

Mtb = settings: footnote a: Jackson et al. 2014, cited from earlier work
P. falciparum [2] = experiment: Growth inhibition against P. falciparum; format: cell-based; settings: Plasmodium falciparum
[3] = Metabolic stability in mouse liver microsomes; format: in vitro ADME; settings: pH 7.4
Method: (§1) In this protocol, the metabolic stability of compounds at 1 μM was determined in mouse liver microsomes (MLM) and mouse plasma. For microsomal stability each test compound was incubated in an aqueous reaction mixture consisting of 0.25 […], 1.2 mM NADPH, 3.3 mM MgCl2, and 100 mM potassium phosphate buffer (pH 7.4). For plasma stability each test compound was incubated in mouse plasma (VWR). After incubation at 37° C. a 50 μL aliquot of the reaction was transferred to 200 μL ice cold acetonitrile containing internal standard (Enalapril, 100 ng/mL). The quenched reaction mixtures were centrifuged at 3200 rpm for 5 min, and 100 μL of the supernatant were transferred to 96-well plate and analyzed by LC-MS/MS using an Applied Biosystems-Sciex API 4000. Analyte/internal standard peak area ratios were used to evaluate stability. […] An Amour C18 column (2.1×30 mm, 5 μm; Analytical Sales and Services, Pompton Plains, N.J.) was used for chromatographic separation. Mobile phases were 0.1% formic acid, 1 mM triethylamine in water and acetonitrile with a flow rate of 0.35 mL/min. The starting phase was 0% acetonitrile increased to 100% acetonitrile over 3 minutes. Peak areas were integrated using Analyst Software (AB Sciex, Foster City, Calif.).

P. berghei ANKA = experiment: P. berghei-infected mouse model of malaria; format: in vivo; settings: for luciferin signal intensity (parasitemia): read seven days after infection
Method: Groups of mice were infected with luciferase-based blood-stage P. berghei ANKA by intraperitoneal (ip) injection. […] Seven days after infection, intensity of the luciferin signal was measured, correlating to the parasitemia burden.

MEP pathway metabolites = experiment: MEP pathway metabolite assay (LC-MS/MS); format: cell-based, P. falciparum; settings: 3D7, 65 nM (5× IC50), 10 h
Source text: Thus, a mass spectrometry-based method was used to quantify the MEP metabolites from untreated P. falciparum versus parasites treated with this compound (FIG. 4). These metabolites include the DXR substrate (1-deoxy-D-xylulose 5-phosphate, DOXP), the DXR product (2-C-methylerythritol 4-phosphate, MEP), and the downstream metabolites (4-diphosphocytidyl-2-C-methylerythritol (CDP-ME) and 2-C-methyl-D-erythritol 2,4-cyclopyrophosphate (MEcPP)).
Cultures were lysed with 5% saponin, the parasite pellets washed with 1× phosphate-buffered saline (PBS), and the pellets stored at −80° C. […]
For LC separation, a Luna-NH2 column (3 um, 150×2 mm, Phenomenex) was used flowing at 0.4 mL/min. […] Metabolites were detected using MRM transitions that were previously optimized using standards. […] For quantification, an external standard curve was prepared using a series of standard samples containing different concentrations of metabolites and fixed concentration of the internal standard. […]

HepG2 cells = experiment: HepG2 cell inhibition (cytotoxicity) assay; format: cell-based; settings: Homo sapiens, HepG2; Table 5, cytotoxicity; read-out: HepG2 IC50
Method: For cytotoxicity assays, HepG2 cells (ATCC HB-8065) were grown in DMEM supplemented with 4 mM L-glutamine (Gibco #11966-025) with either 4.5 g/L D-glucose or 1.8 g/L galactose as carbon source. Cells were trypsinized, resuspended in the respective medium (DMEM/glutamine/glucose or DMEM/glutamine/galactose) to 4×10^5 cells/mL and 50 μL/well transferred to flat-bottom white opaque tissue culture plates (Falcon #353296) containing 50 μL/well of the respective medium with test compound. Compound concentrations were two-fold dilutions ranging from 50 μM to 0.049 μM as well as the drug-free DMSO-only control. All concentrations were tested in duplicate for each carbon source. After 24 h incubation at 5% CO2, 37° C., 10 μL/well of Celltiter-Glo reagent (Promega #G9241) was added and luminescence recorded after 20 min incubation in the dark.

[4] = tested on: P. falciparum had1 mutant strain; format: cell-based
in vitro = in vitro ADME; settings: mouse plasma, compound 1 μM, 37° C.; read-out: Plasma stability (t1/2)
Method: as §1

[5] = In vivo exposure study in mice; set-up: species or system Swiss Webster mice; settings: 20 mg/kg i.p., Swiss Webster mice
Method: We designed a compound exposure study to determine plasma concentration of 12a under similar conditions to the efficacy study.
Animal care and all procedures were conducted at Charles River Laboratories (Wilmington, Mass.) and performed in accordance with the National Institutes of Health Guide for the Care and Use of Laboratory Animals and approved by the institutional animal care and use committee. […] The suspension was administered to unfasted female Swiss Weber mice (n=3) at 20 mg/kg i.p. Plasma samples (10 μL) were removed at 0.25, 0.5, 1, 2, 4, 6 and 8 h and stored at −80° C. Plasma samples were added to ice cold acetonitrile containing the internal standard, glafenine, as appropriate to bring samples into the standard curve range (50-10,000 ng/ml), then centrifuged for 5 minutes at 3200 rpm and the supernatant transferred to a 96-well sample plate for analysis by liquid chromatography-tandem mass spectrometry. The MRM transitions for glafenine and 12a were m/z: 370.9>296.9 and 180.075>119.9, respectively. A Synergi 4 μm Hydro-RP column (250×4.6 mm, 80 Å) was used for chromatographic separation. Mobile phases were 0.1% formic acid in water and acetonitrile with a flow rate of 1.2 mL/min. The starting phase was 0% acetonitrile for 3 minutes, increased to 60% acetonitrile over 6 minutes. Peak areas were integrated using Analyst Software (AB Sciex, Foster City, Calif.).

DXR = settings: versus substrate DOXP and cofactor NADPH; cited from earlier work
[6] = Table 4, growth inhibition, read-out: Pf IC50
[7] = read-out: P. falciparum growth IC50

## CC(=O)N(O)C/C=C/P(=O)(O)O [Compound 2]
P. falciparum [1]
  IC50: 203 nM
P. falciparum DXR
  IC50: 18 nM
Mtb; minimal media (GAST-Fe)
  Mtb MIC99 Gast/Fe: 150^a μg/mL
Mtb; rich media (7H9)
  Mtb MIC99 7H9: >200^a μg/mL

## CC(C)(C)C(=O)OCOP(=O)(/C=C/CN(O)C=O)OCOC(=O)C(C)(C)C [Compound 18a, [({[(2,2-dimethylpropanoyl)oxy]methoxy}[(1E)-3-(N-hydroxyformamido)prop-1-en-1-yl]phosphoryl)oxy]methyl 2,2-dimethylpropanoate]
P. falciparum [2]; [6]
  IC50: 13 nM
P. falciparum [2]; [7]
  IC50: 13 nM
[3]; mouse, microsomes
  half-life at 1 μM: < 5 min
[3]; mouse liver microsomes, compound 1 μM, 37° C., read-out: Metabolic stability MLM (t1/2)
  half-life: < 5 min
P. berghei ANKA; 20 mg/kg i.p.
  drop in luciferin signal intensity compared to vehicle: 3 log
P. berghei ANKA; 20 mg/kg i.p. daily for five days
  luciferin signal intensity (parasitemia): 2.87×10^3
P. berghei ANKA; 50 mg/kg i.p. daily for five days
  luciferin signal intensity (parasitemia): 2.34×10^3
MEP pathway metabolites
  DOXP levels, treated vs untreated parasites: did not show significant difference
MEP pathway metabolites; MEP, CDP-ME, MEcPP
  levels of metabolites downstream of DXR, treated vs untreated parasites: reduced levels
HepG2 cells
  IC50: > 50000 nM
[4]; mutant supplied with wild-type copy of HAD1
  sensitivity in had1+HAD1-GFP strain: restored
[4]; shift of IC50 curve
  resistance of had1 parasites compared with wild-type 3D7: 2.5 fold
In vitro
  half-life at 1 μM: < 5 min
[5]
  conversion of prodrug to 12a in vivo: rapidly converted to 12a

## O=CN(O)CCCP(=O)(O)O [Fosmidomycin, reference compound]
P. falciparum [2]; Table 3, diethyl phosphonate analogs, read-out: P.f. IC50
  IC50: 0.175 µg/mL
P. falciparum [2]; [6]
  IC50: 854 nM
P. falciparum [2]; [7]
  IC50: 854 nM
[4]; in words
  resistance of had1 parasites compared with wild-type: resistant
DXR
  binding mode to DXR: competitively with substrate DOXP and noncompetitively with cofactor NADPH

Source: patent publication US11098072B2, “Alkenyl and beta-substituted phosphonates as antimicrobial agents” (The George Washington University, priority 2017, dated 2021)
